Experimental data from US9476053B2, “Methods and compositions for inhibition of immune responses and autoimmunity” (Dynavax Technologies Corporation, priority 2007, dated 2016).
Where two headings read alike, the source gives them in different places.

How the values were obtained:
PDC [1] = assay: In vivo PDC sensitivity to glucocorticoid in 129 mice treated with DEX plus CpG plus IRS; set-up: species or system mouse; settings: DEX 1000 μg plus CpG 50 μg plus IRS 100 μg
Protocol: To investigate whether IRPs comprising an IRS restore in vivo PDC sensitivity to glucocorticoid in mice treated with CpG-TLR9 ligand, 129 mice were treated with the glucocorticoid Dexthametasone (DEX; 1000 μg) alone or DEX (1000 μg) plus a immunostimulatory sequence CpG-C ISS C274 (“ISS”; […]. Viability of the different cell type was evaluated as described in Example 9.
Cells were identified to be PDC by the surface presence of B220, CD11c, and PDCA1 marker. Myeloid dendritic cells were identified as to be CD11c positive and B220 negative. B-cells were identified as B220 positive cells and CD11c negative. Monocytes were identified as CD11b positive. Similar results were obtained using blood (data not shown). […] IRPs comprising an IRS restored in vivo PDC sensitivity to glucocorticoid in mice treated with CpG-TLR9 ligand.

[2] = tested on: cells infiltrating inflamed skin; assay: Tape-stripping skin inflammation in 129 mice, gene expression of infiltrating cells by Taqman; format: in vivo, mouse; settings: IRS 100 μg s.c. or i.v. or locally
Protocol: PDC infiltrate the inflamed mouse skin. 129 mice were mechanical stripped 12 times with tape or left untreated as control. After 16 hr mice were euthanized and the skin was collected and digested for 1 hr with a solution containing Liberase 0.28 u/ml and the cellular content was analyzed by flow cytometry. A) depicts an example of the facs plot of plasmacytoid dendritic cells PDC were defined to be CD11c+, […]) Cells infiltrating the skin were stimulated in vitro with an immunostimulatory sequence […] ID NO:125), wherein upper case letters represent PS […] lower case letters represent PO linkages) (1 μM) and IFN-α was measured in the supernatant by ELISA. Cells infiltrating inflamed skin show an IFN-α inflammatory gene signature which is preventable by treatment with IRS. Skin of 129 mice was mechanical inflamed by tape stripping as described in FIG. 39. Mice were stripped only or stripped and treated with IRS (SEQ ID NO:123) (100 μg) either administered s.c. or i.v. or locally on the inflamed skin. A group of mice was left completely untreated to serve as controls. Skin was processed as described in FIG. 39 and RNA was extracted from the infiltrating cells using an RNA kit from Quiagen according to manufacture instruction. Gene expression of specific genes was measured by Taqman. […] IRS can target skin inflammation in vivo.

[3] = tested on: IFN-α production in PDC cells; format: cell-based, human
PDC [4] = assay: Glucocorticoid induced cell death in lupus prone (NZB×NZW)F1 mice treated with DEX plus IRS; format: in vivo, mouse; settings: DEX 500 μg plus IRS 100 μg, spleen
Protocol: Next, the ability of immunoregulatory sequences to restore responsiveness to glucocorticoid treatment in lupus prone mice (NZB×NZW)F1 was evaluated.
To test whether IRPs comprising an IRS restore sensitiveness to glucocorticoid induced cell death in autoimmune prone animals, Lupus prone mice (NZB×NZW)F1 mice treated with 500 μg of Dexthametasone (DEX) alone or DEX (500 μg) plus IRS (SEQ ID NO: 123) (100 μg) or DEX (500 μg) plus IRS (SEQ ID NO: 123) (100 μg) or DEX (500 μg) plus CTRL oligo (100 μg). Viability of the different cell type was evaluated as described in Example 9.
Cells were identified to be PDC by the surface presence of B220, CD11c, and PDCA1 marker. Myeloid dendritic cells were identified as to be CD11c positive and B220 negative. B-cells were identified as B220 positive cells and CD11c negative. Monocytes were identified as CD11b positive. […] IRS restored sensitiveness to glucocorticoid induced cell death in autoimmune prone animals.

[5] = tested on: plasmacytoid dendritic cells (PDCs); format: cell-based, human
[6] = influenza virus and SEQ ID NO:123 compared to influenza virus alone, hydroxycortisone 1×10^−8 M
[7] = influenza virus, no hydroxycortisone present

“5′-TGCTCCTGGAGGGGTTGT-3′ (chemistry not given here) [SEQ ID NO:123]” was tested, and the “in vivo PDC sensitivity to glucocorticoid in mice treated with CpG-TLR9 ligand” value (PDC [1]) was “restored”, the “IFN-α inflammatory gene signature of cells infiltrating inflamed skin” value [2] was “preventable” and the IFN-α production inhibited [3, 6] was 92%. The IFN-α inhibition [3, 7] was “completely inhibited”, the “sensitiveness to glucocorticoid induced cell death in autoimmune prone animals” value (PDC [4]) was “restored” and the “reduction in the amount of hydroxycortisone necessary to achieve 50% death of PDCs” value (from here on “reduction … to achieve 50% death of PDCs”) ([5]; HSV plus SEQ ID NO:123 versus HSV) was 37 fold. For the same substance, the “reduction … to achieve 50% death of PDCs” value ([5]; ISS plus SEQ ID NO:123 versus ISS) was 23 fold, the “percent survival of PDCs compared to influenza virus alone” value ([5]; combination with influenza virus, hydroxycortisone 1×10^−6 M, 48H) was “statistically significant decrease” and the “decrease in survival of PDC cells” value [5, 6] was 23%. The “reduction … to achieve 50% death of PDCs” value ([5]; influenza virus plus SEQ ID NO:123 versus influenza virus) was 204 fold and the “difference in PDC survival” value [5, 7] was “no difference”.
